Source: patent publication US7132419B2, “Pharmaceutical compounds” (Xenova Limited, priority 2000, dated 2006)

Key:
[1] = tested on: Jurkat human leukaemia cell line (JLC); experiment: Cytotoxicity, Jurkat leukaemia cell line JLC; format: cell-based; conditions: concentration required to give 50% cell kill
Procedure: (§1) The cytotoxicity of the compounds described herein was also measured using the Jurkat human leukaemia cell line (JLC) and also the amsacrine-resistant Jurkat human leukaemia cell line (JLA) and the doxorubicin-resistant Jurkat human leukaemia cell line (JLD). The cytotoxicity, as measured by the IC50 (concentration required to give 50% cell kill) in the JLA or JLD cell line divided by the cytotoxicity in the JLC cell line gives an indication of the degree to which a compound may be affected by atypical drug resistance and is termed the resistance factor (Rf) of the compound. The method used has been described previously (Finlay et al, Eur J. Cancer 32A, 708–714, 1996). Compounds were active in the range 1 nM to 5 μM.

[2] = tested on: amsacrine-resistant Jurkat human leukaemia cell line (JLA); experiment: Cytotoxicity, amsacrine-resistant Jurkat cell line JLA; format: cell-based; conditions: for IC50: concentration required to give 50% cell kill; for Rf (JLA/JLC): IC50 in JLA divided by IC50 in JLC, atypical drug resistance
Procedure: as §1

[3] = tested on: doxorubicin-resistant Jurkat human leukaemia cell line (JLD); experiment: Cytotoxicity, doxorubicin-resistant Jurkat cell line JLD; format: cell-based; conditions: for IC50: concentration required to give 50% cell kill; for Rf (JLD/JLC): IC50 in JLD divided by IC50 in JLC, atypical drug resistance
Procedure: as §1

[4] = tested on: H69 parental (H69/P) human small cell lung carcinoma cell line; experiment: Cytotoxicity, H69 parental cell line (AlamarBlue); format: cell-based; conditions: concentration required to give 50% cell kill, 5–6 days incubation
Procedure: (§2) The cytotoxicity of compounds of formula (I) was measured using the H69 parental (H69/P) human small cell lung carcinoma cell line and the drug resistant human small cell lung carcinoma cell line H69/LX4 which overexpresses P-glycoprotein (Pgp). The cytotoxicity, as measured by the IC50 (concentration required to give 50% cell kill) in the H69/LX4 cell line divided by the cytotoxicity in the H69/P cell line gives an indication of the degree to which a compound is affected by Pgp-dependent MDR and is termed the resistance factor (Rf) of the compound.
(§3) H69/P and H69/LX4 cells were pipetted into 96-well tissue culture plates and then allowed to incubate at 37° C. for 4 h. […] The plates were incubated for 5–6 days before adding AlamarBlue to each well and returning the plates to the incubator for 5–8 h to allow colour development. The cell numbers in the plates at the end of this period were directly proportional to the absorbance measured at a wavelength of 570 nm (reference wavelength 600 nm).

[5] = tested on: drug resistant human small cell lung carcinoma cell line H69/LX4 which overexpresses P-glycoprotein (Pgp); experiment: Cytotoxicity, drug resistant H69/LX4 cell line (AlamarBlue); format: cell-based; conditions: for Rf (resistance factor): IC50 in H69/LX4 divided by IC50 in H69/P, Pgp-dependent MDR; for IC50: concentration required to give 50% cell kill, 5–6 days incubation
Procedure: as §2, §3

[6] = tested on: COR-L23 parental (COR-L23/P) human non-small cell lung carcinoma cell line; experiment: Cytotoxicity, COR-L23 parental cell line (SRB assay); format: cell-based; conditions: concentration required to give 50% cell kill, 5–6 days incubation
Procedure: (§4) The cytotoxicity of the compounds described herein was also measured using the COR-L23 parental (COR-L23/P) human non-small cell lung carcinoma cell line and also the drug resistant human non-small cell lung carcinoma cell line COR-L23/R which overexpresses multidrug resistance associated protein (MRP). The cytotoxicity, as measured by the IC50 (concentration required to give 50% cell kill) in the L23/R cell line divided by the cytotoxicity in the L23/P cell line gives an indication of the degree to which a compound may be affected by MRP-dependant MDR and is termed the resistance factor (Rf) of the compound.
(§5) L23/P and L23/R cells were pipetted into 96-well tissue culture plates and then allowed to incubate at 37° C. for 4 h. […] The plates were incubated for 5–6 days before proliferation was assessed using the sulphurhodamine B (SRB) assay as described by Skehan et al, J Natl Cancer Inst 1990, 82, pp 1107–1112.

[7] = tested on: drug resistant human non-small cell lung carcinoma cell line COR-L23/R which overexpresses multidrug resistance associated protein (MRP); experiment: Cytotoxicity, drug resistant COR-L23/R cell line (SRB assay); format: cell-based; conditions: for Rf (resistance factor): IC50 in L23/R divided by IC50 in L23/P, MRP-dependant MDR; for IC50: concentration required to give 50% cell kill, 5–6 days incubation
Procedure: as §4, §5

topoisomerase I = target: T1, topoisomerase I (Homo sapiens, UniProt P11387); experiment: Stabilisation of cleavable complexes, topoisomerase I; format: biochemical; conditions: range where an increase in cleavable complexes was observed relative to controls in the absence of drug
T1 sequence (P11387 1-765): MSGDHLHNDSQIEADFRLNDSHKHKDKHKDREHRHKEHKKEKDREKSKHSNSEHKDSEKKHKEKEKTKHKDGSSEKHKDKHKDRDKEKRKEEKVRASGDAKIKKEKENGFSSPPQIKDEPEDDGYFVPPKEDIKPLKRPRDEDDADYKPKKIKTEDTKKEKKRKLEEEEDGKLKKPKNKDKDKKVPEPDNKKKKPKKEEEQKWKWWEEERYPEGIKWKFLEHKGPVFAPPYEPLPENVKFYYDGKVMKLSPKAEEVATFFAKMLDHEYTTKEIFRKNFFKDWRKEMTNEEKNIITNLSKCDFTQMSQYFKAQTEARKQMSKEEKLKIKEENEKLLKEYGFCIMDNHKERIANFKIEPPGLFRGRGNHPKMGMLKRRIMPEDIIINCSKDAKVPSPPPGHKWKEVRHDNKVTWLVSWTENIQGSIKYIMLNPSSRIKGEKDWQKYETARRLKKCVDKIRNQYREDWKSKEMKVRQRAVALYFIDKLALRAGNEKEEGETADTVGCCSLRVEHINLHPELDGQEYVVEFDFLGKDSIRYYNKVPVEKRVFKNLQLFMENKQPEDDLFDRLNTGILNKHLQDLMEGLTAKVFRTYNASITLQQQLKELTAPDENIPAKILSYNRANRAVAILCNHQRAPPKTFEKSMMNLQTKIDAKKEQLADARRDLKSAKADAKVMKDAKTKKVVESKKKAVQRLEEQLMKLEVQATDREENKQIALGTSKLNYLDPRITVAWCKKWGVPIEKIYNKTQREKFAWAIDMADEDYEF
Text: (§6) Compounds were also studied for their ability to stabilize cleavable complexes in the presence of either topoisomerase I or II essentially as described previously (Finlay et al, Eur J. Cancer 32A, 708–714, 1996). Presence of cleavable complexes was indicated by an increase in the number and intensity of bands observed after electrophoresis and autoradiography. The results are expressed as the effective concentration range where an increase in cleavable complexes was observed relative to controls in the absence of drug.

topoisomerase II = experiment: Stabilisation of cleavable complexes, topoisomerase II; format: biochemical; conditions: range where an increase in cleavable complexes was observed relative to controls in the absence of drug
Text: as §6

[8] = Cytotoxicity, drug resistant COR-L23/R cell line (SRB assay); format: cell-based, human; conditions: Homo sapiens, COR-L23/R; concentration required to give 50% cell kill; 5–6 days incubation
Procedure: as §4, §5

| SMILES | IC50 ([1]; Homo sapiens, Jurkat) [nM] | IC50 ([2]; Homo sapiens, Jurkat) [nM] | Rf (JLA/JLC) [2] | IC50 ([3]; Homo sapiens, Jurkat) [nM] | Rf (JLD/JLC) [3] | IC50 [4] [nM] | Rf (resistance factor) [5] | IC50 [5] [nM] | IC50 [6] [nM] | Rf (resistance factor) [7] | IC50 [7] [nM] | IC50 [1] [nM] | IC50 [2] [nM] | IC50 [3] [nM] | Effective concentration range, Topoisomerase I (topoisomerase I) [µM] | Effective concentration range, Topoisomerase II (topoisomerase II) [µM] | IC50 ([4]; Homo sapiens) [nM] | IC50 ([5]; Homo sapiens) [nM] | IC50 ([6]; Homo sapiens, COR-L23) [nM] | IC50 [8] [nM] |
| --- | --- | --- | --- | --- | --- | --- | --- | --- | --- | --- | --- | --- | --- | --- | --- | --- | --- | --- | --- | --- |
| CN(C)CCNC(=O)c1cccc2nc3ccc4cc(O)ccc4c3nc12 [Compound 2, 3-Hydroxy-benzo[a]phenazine-11-carboxylic acid (2-dimethylamino-ethyl)-amide] | 37 | 96 | 2.6 | 107 | 2.9 |  |  |  |  |  |  |  |  |  |  |  |  |  |  |  |
| Br.CN(C)CCNC(=O)c1cccc2nc3ccc4c(O)cccc4c3nc12 [Compound 4, 4-Hydroxy-benzo[a]phenazine-11-carboxylic acid (2-dimethylamino-ethyl)-amide: hydrobromide salt] |  |  | 1.4 |  | 1.2 | 35 | 1.4 | 48 | 14.7 | 1.1 | 16.8 | 19 | 26.6 | 22.8 | 0.1 to 3.0 | 0.1 to 3.0 |  |  |  |  |
| CN(C)CCNC(=O)c1cccc2nc3ccc4c(OCC#N)cccc4c3nc12 [Compound 11, 4-Cyanomethoxy-benzo[a]phenazine-11-carboxylic acid (2-dimethylamino-ethyl)-amide] |  |  |  |  |  |  | 0.9 |  |  | 2.9 |  |  |  |  |  |  | 28 | 24 | 6.1 | 17.7 |
| COc1cccc2c1ccc1nc3cccc(C(=O)NC(C)CN(C)C)c3nc12 (centres unmarked) [Compound 35, 4-Methoxy-benzo[a]phenazine-11-carboxylic acid (2-dimethylamino-1-methyl-ethyl)-amide] | 28 | 19 | 0.7 | 25 | 0.9 |  |  |  |  |  |  |  |  |  | 0.03 to 1.0 | 0.03 to 1.0 |  |  |  |  |
| CN(C)CCNC(=O)c1c(O)ccc2nc3ccc4c(O)cccc4c3nc12 [Compound 68, 4,10-Dihydroxy-benzo[a]phenazine-11-carboxylic acid (2-dimethylamino-ethyl)-amide] |  |  |  |  |  |  | 1.3 |  |  | 3.4 |  |  |  |  |  |  | 19 | 25 | 13.1 | 44.4 |
| COc1cccc2c1ccc1nc3cccc(C(=O)NC(CO)CN(C)C)c3nc12 (centres unmarked) [Compound 75, 4-Methoxy-benzo[a]phenazine-11-carboxylic acid (2-dimethylamino-1-hydroxymethyl-ethyl)-amide] |  |  |  |  |  |  | 1.2 |  |  | 1.3 |  |  |  |  |  |  | 23 | 28 | 13 | 17.2 |
| COc1cccc2c1ccc1nc3cccc(C(=O)N[C@H](CO)CN(C)C)c3nc12 [Compound 81, 4-Methoxy-benzo[a]phenazine-11-carboxylic acid (2-dimethylamino-1-(S)-hydroxymethyl-ethyl)-amide] | 8.7 | 9.2 | 1.1 | 9.3 | 1.1 |  | 1.2 |  |  | 3.1 |  |  |  |  |  |  | 20 | 25 | 4 | 12.4 |
| COc1cccc2c1ccc1nc3cccc(C(=O)NC(CN(C)C)C(C)O)c3nc12 (centres unmarked) [Compound 84, 4-Methoxy-benzo[a]phenazine-11-carboxylic acid (1-dimethylaminomethyl-2-hydroxy-propyl)-amide] | 4.4 | 9.8 | 2.2 | 7.2 | 1.6 |  | 1 |  |  |  |  |  |  |  | 0.03 to 1.0 | 0.03 to 1.0 | 19 | 19 |  |  |
| COc1cccc2c1ccc1nc3cccc(C(=O)NC(C)(CCO)N(C)C)c3nc12 (centres unmarked) [Compound 87, 4-Methoxy-benzo[a]phenazine-11-carboxylic acid [1-dimethylamino-1-(2-hydroxyethyl)]-ethylamide] |  |  | 1.0 |  | 1.0 |  |  |  |  |  |  | 16 | 16 | 17 |  |  |  |  |  |  |
| COc1cc(C(=O)NCCN(C)C)c2nc3c(ccc4c(OC)cccc43)nc2c1 [Compound 94, 4,9-Dimethoxy-benzo[a]phenazine-11-carboxylic acid (2-dimethylamino-ethyl)-amide] | 9.2 | 16 | 1.8 | 14 | 1.6 |  | 1.3 |  |  | 0.7 |  |  |  |  |  |  | 19 | 25 | 5.7 | 3.8 |
| COc1cccc2c1ccc1nc3cccc(C(=O)N[C@@H](CN(C)C)C(C)C)c3nc12 [Compound 98, (R)-4-Methoxy-benzo[a]phenazine-11-carboxylic acid(1-dimethylaminomethyl-2-methyl-propyl)-amide] |  |  | 2.1 |  | 1.6 | 21 | 1 | 20 | 9.6 | 0.9 | 8.8 | 8.6 | 18 | 14 |  |  |  |  |  |  |
| COc1cccc2c1C(=O)c1c(O)c3c(c(O)c1C2=O)C[C@@](O)(C(=O)CO)C[C@@H]3O[C@H]1C[C@H](N)[C@H](O)[C@H](C)O1 [Doxorubicin, reference compound] | 7 |  | 3.7 |  |  |  | 135 |  |  | 16.1 |  |  |  |  |  |  |  | 3700 |  |  |
| CC[C@@]1(O)C(=O)OCc2c1cc1n(c2=O)Cc2cc3c(CN(C)C)c(O)ccc3nc2-1 [Topotecan, reference compound] |  |  |  |  |  |  | 3.9 |  |  | 1.5 |  |  |  |  |  |  |  |  |  |  |
